{
  "source": "ChEMBL document CHEMBL1123905",
  "data": [
    {"target": "Histamine H2 receptor (Cavia porcellus) (UniProt P47747)", "sequence (P47747 whole entry)": "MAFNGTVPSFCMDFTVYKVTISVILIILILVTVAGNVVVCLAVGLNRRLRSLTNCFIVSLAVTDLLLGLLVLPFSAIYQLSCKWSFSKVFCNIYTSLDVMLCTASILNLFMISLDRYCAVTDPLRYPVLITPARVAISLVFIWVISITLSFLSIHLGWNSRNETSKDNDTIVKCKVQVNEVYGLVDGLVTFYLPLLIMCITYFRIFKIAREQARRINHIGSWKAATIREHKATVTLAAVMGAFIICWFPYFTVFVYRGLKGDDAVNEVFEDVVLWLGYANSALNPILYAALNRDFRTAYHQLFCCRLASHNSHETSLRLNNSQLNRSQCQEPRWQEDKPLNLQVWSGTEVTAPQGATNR", "experiment": "Antagonism of histamine stimulated rate of beating of guinea pig right atrium mediated by Histamine H2 receptor", "assay_type": "functional, tissue-based", "settings": "Cardiac atrium", "values": [
      {"smiles": "CN/C(=N\\CCSCc1[nH]cnc1C)S(=O)O", "-Log KB": 5.73},
      {"smiles": "Cc1[nH]cnc1CSCC/N=C(\\N)C(=O)O", "-Log KB": 5.41},
      {"smiles": "CN/C(=N\\CCSCc1[nH]cnc1C)P(=O)(O)OC", "-Log KB": 4.25},
      {"smiles": "Cc1[nH]cnc1CSCCNc1ncccc1C(=O)O", "-Log KB": 5.09},
      {"smiles": "CN/C(=N\\CCSCc1[nH]cnc1C)S(=O)(=O)O", "-Log KB": 5.87},
      {"smiles": "CN/C(=N\\CCSCc1nc[nH]c1C)NC#N", "-Log KB": 6.1},
      {"smiles": "Cc1[nH]cnc1CSCC/N=C(\\N)c1ccc(C(=O)O)cc1", "-Log KB": 3.7},
      {"smiles": "Cc1[nH]cnc1CSCCNc1ncccc1S(=O)(=O)O", "-Log KB": 3.77},
      {"smiles": "Cc1[nH]cnc1CSCCNc1cc(C(=O)O)ccn1", "-Log KB": 3.76},
      {"smiles": "Cc1[nH]cnc1CSCC/N=C(\\N)c1ccc(O)cc1", "-Log KB": 4.2},
      {"smiles": "Cc1[nH]cnc1CSCCNc1ncccc1O", "-Log KB": 5.89},
      {"smiles": "Cc1[nH]cnc1CSCC/N=C(\\N)CC(=O)O", "-Log KB": 3.3},
      {"smiles": "Cc1[nH]cnc1CSCCNc1ccc(C(=O)O)cn1", "-Log KB": "< 3.3"}
    ]}
  ]
}
